From US20260355191A1, “PAN-RAS INHIBITOR COMPOUND” (ADLAI NORTYE BIOPHARMA CO., LTD., priority 2024, published 2026) come the findings set out here.

One experiment concerns the target T1, cyclophilin A (CypA) (Homo sapiens, UniProt P62937).
T1 construct: purchased R&D 3589-CAB
The experiment can be described thus: Binary complex binding assay (BLI). The following applies: His-tagged CypA, pH 7.4, 1:1 binding model; for Kd: read-out: KD1 (binary complex equilibrium dissociation constant); for kon: read-out: ka (association rate constant); for koff: read-out: kdis (dissociation rate constant). The protocol:
To evaluate the binding ability of the test compounds to cyclophilin A (CypA), we employed a Bio-layer Interferometry (BLI) method (Octet R8) to monitor the binding kinetics between the compounds and CypA, and to calculate the affinity of the binary complex. His-tagged CypA protein (3589-CAB, R&D) was first immobilized on an NTA sensor, followed by baseline equilibration for 120 seconds in the assay buffer (20 mM HEPES, pH 7.4, 150 mM NaCl, 5 mM MgCl2, 1 mM TCEP, 0.01% Tween 20). The sensor was then exposed to buffer solutions containing different concentrations of the compounds to monitor the association process in real time. When the high-concentration compound binding reached a plateau, the sensor was transferred to compound-free buffer to measure the dissociation process. To ensure data accuracy, DMSO normalization was performed, non-specific binding was minimized by buffer optimization, and negative and positive controls were set to verify assay specificity. Data were processed using Octet Analysis Studio 13.0, analyzed using a 1:1 binding model, and the association rate constant (ka), dissociation rate constant (kdis), and equilibrium dissociation constant (KD1) were calculated.

Another experiment concerns H358. The experiment can be described thus: In vitro cell proliferation inhibition assay (CellTiter-Glo), H358. The following applies: H358, KRAS (p.G12C), 72 h; read-out: IC50, antiproliferative activity. It is filed as cell-based. The protocol: (§1) Due to the diversity of RAS mutations, and in order to evaluate the activity of the compounds in different RAS mutant cell lines, we selected cell lines with KRAS^G12D, KRAS^G12V, KRAS^G12c, NRAS^q61L, KRAS^G13D, KRAS^G12R, and KRAS^WT mutations (see the table below for in vitro activity evaluation and screening of the compounds.
(§2) According to the doubling time of different cell lines, different numbers of cells (1000-5000 cells/well) were seeded into 96-well plates containing 180 μL of the corresponding culture medium, and incubated overnight in a cell incubator at 37 °C with 5% C02. On the following day, the test compounds were pre-diluted in the culture medium in a 3-fold serial dilution series, with the highest concentration being […], resulting in 10 concentration gradients in total. Subsequently, 20 μL of culture medium containing the compounds at different concentrations was added to the cells in the 96-well plates, ensuring a final compound concentration of up to 10 μM, with 10 concentrations in 3-fold dilution. After co-incubation of the cells with the compounds for 72 h, the 96-well plates were removed from the incubator and equilibrated at room temperature for 30 min. Then, 25 μL of CellTiter-Glo® Reagent was added to each well and mixed thoroughly, followed by incubation at room temperature for 10 min. Subsequently, 100 μL of the samples was transferred to white 96-well plates (OptiPlate™-96, PerkinElmer), and […] signal values were read using a multifunctional microplate reader (SpectraMax i3x, Molecular Devices). The signal values were then normalized, and curve fitting was performed using a four-parameter logistic regression equation to calculate the half maximal inhibitory concentration (IC50) of the compounds against the cell lines.

For another experiment, the system named is PSN1. The experiment can be described thus: In vitro cell proliferation inhibition assay (CellTiter-Glo), PSN1. It is filed as cell-based. The following applies: PSN1, KRAS (p.G12R), 72 h; read-out: IC50, antiproliferative activity. The protocol: as §1, §2
Another experiment relates to HepG2. Nature of the experiment: In vitro cell proliferation inhibition assay (CellTiter-Glo), HepG2. Type of experiment: cell-based. The note with it: HepG2, NRAS (p.Q61L), 72 h; read-out: IC50, antiproliferative activity. On the procedure:
as §1, §2
On the technique in general: Cellular ATP, detected with luciferase, serves as a proxy for viable cell number.

In the next experiment the test system is SW480. Nature of the experiment: In vitro cell proliferation inhibition assay (CellTiter-Glo), SW480. Type of experiment: cell-based. The following applies: SW480, KRAS (p.G12V), 72 h; read-out: IC50, antiproliferative activity. The protocol: as §1, §2
The target in experiment [1] is ternary complex comprising RAS and CypA; KRAS^G12D (Homo sapiens, UniProt P01116+P62937, G12D). Nature of the experiment: Ternary complex binding assay (BLI), KRAS G12D. The following applies: GMPPNP-loaded KRAS^G12D, fixed concentration of CypA, pH 7.4, read-out: KD2 (ternary complex equilibrium dissociation constant). The protocol: (§3) To evaluate the ability of the test compounds to induce the formation of a ternary complex comprising RAS and CypA, we employed a Bio-layer Interferometry (BLI) method (Octet R8) to monitor the binding kinetics among the compounds, RAS, and CypA, and to calculate the affinity of the ternary complex. GMPPNP was first incubated with RAS protein to load GMPPNP onto RAS. His-tagged RAS proteins with different mutations were then immobilized on NTA sensors, followed by baseline equilibration for 120 seconds in the assay buffer (20 mM HEPES, pH 7.4, 150 mM NaCl, 5 mM MgCl2, 1 mM TCEP, 5 μM GMPPNP, 0.01% Tween 20). The sensors were subsequently exposed to buffer containing various concentrations of the compounds and a fixed concentration of CypA, and the association phase of ternary complex formation was monitored in real time. Once binding reached a plateau, the sensors were transferred to compound- and CypA-free buffer to measure the dissociation phase. To ensure accuracy, DMSO normalization was performed, buffer composition was optimized to reduce non-specific binding, and both negative and positive controls were employed to verify assay specificity. Data were processed using Octet Analysis Studio 13.0, analyzed using a 1:1 binding model, and the association rate constant (ka), dissociation rate constant (kdis), and equilibrium dissociation constant (KD2) were calculated.

Experiment [2] deals with ternary complex comprising RAS and CypA; KRAS^G12V (Homo sapiens, UniProt P01116+P62937, G12V). The experiment can be described thus: Ternary complex binding assay (BLI), KRAS G12V. The note with it: GMPPNP-loaded KRAS^G12V, fixed concentration of CypA, pH 7.4, read-out: KD2 (ternary complex equilibrium dissociation constant). On the procedure: as §3
The test system of another experiment is AsPC-1. Nature of the experiment: In vitro cell proliferation inhibition assay (CellTiter-Glo), AsPC-1. Type of experiment: cell-based. The note with it: AsPC-1, KRAS (p.G12D), 72 h; read-out: IC50, antiproliferative activity. On the procedure:
as §1, §2

Experiment [3] concerns the target ternary complex comprising RAS and CypA; KRAS^WT (Homo sapiens, UniProt P01116+P62937). Nature of the experiment: Ternary complex binding assay (BLI), KRAS WT. The following applies: GMPPNP-loaded KRAS^WT, fixed concentration of CypA, pH 7.4, read-out: KD2 (ternary complex equilibrium dissociation constant). The protocol: as §3
Another experiment relates to HCT116. The experiment can be described thus: In vitro cell proliferation inhibition assay (CellTiter-Glo), HCT116. Type of experiment: cell-based. The note with it: HCT116, KRAS (p.G13D), 72 h; read-out: IC50, antiproliferative activity. The protocol: as §1, §2
The subject of the next experiment is MV411. Nature of the experiment: In vitro cell proliferation inhibition assay (CellTiter-Glo), MV411. It is filed as cell-based. The note with it: MV411, KRAS wild type, 72 h; read-out: IC50, antiproliferative activity. On the procedure: as §2

Sequence of ternary complex comprising RAS and CypA; KRAS^WT (P01116 1-188 isoform P01116-2): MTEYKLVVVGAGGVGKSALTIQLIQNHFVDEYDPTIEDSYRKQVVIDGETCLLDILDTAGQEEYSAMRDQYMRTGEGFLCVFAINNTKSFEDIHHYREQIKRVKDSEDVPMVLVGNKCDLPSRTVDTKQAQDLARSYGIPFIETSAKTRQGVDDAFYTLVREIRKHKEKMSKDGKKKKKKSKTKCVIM
Sequence of ternary complex comprising RAS and CypA; KRAS^WT (P62937 whole entry): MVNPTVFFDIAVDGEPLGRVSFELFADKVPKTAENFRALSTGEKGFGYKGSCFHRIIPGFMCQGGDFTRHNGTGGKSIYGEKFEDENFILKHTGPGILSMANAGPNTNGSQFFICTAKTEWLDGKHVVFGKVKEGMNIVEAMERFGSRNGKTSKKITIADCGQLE
Sequence of ternary complex comprising RAS and CypA; KRAS^G12V (P01116 1-188 isoform P01116-2 G12V): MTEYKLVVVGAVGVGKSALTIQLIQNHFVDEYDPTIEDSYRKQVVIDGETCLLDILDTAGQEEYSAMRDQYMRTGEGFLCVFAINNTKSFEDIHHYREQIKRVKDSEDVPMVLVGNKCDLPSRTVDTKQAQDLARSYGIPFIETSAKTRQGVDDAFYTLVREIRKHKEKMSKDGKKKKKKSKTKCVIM
Sequence of ternary complex comprising RAS and CypA; KRAS^G12V (P62937 whole entry): as the sequence (P62937 whole entry) above
Sequence of ternary complex comprising RAS and CypA; KRAS^G12D (P01116 1-188 isoform P01116-2 G12D): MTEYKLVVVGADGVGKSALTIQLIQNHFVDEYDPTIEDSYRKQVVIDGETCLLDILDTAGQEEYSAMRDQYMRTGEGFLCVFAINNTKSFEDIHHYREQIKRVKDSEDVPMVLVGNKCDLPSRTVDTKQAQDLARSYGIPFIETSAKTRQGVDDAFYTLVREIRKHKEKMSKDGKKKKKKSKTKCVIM
Sequence of ternary complex comprising RAS and CypA; KRAS^G12D (P62937 whole entry): as the sequence (P62937 whole entry) above
T1 sequence (P62937 whole entry): as above

In the case of `CCn1c(-c2cc(-c3nc(C4CCN(C5COC5)CC4)n(C)n3)cnc2[C@H](C)OC)c2c3cc(ccc31)-c1csc(n1)C[C@H](NC(=O)[C@H]1[C@H](C)[C@@H]1C)C(=O)N1CCC[C@H](N1)C(=O)OCC(C)(C)C2` (atropisomer, axis not shown) [Compound 4, (1r,2R,3S)—N-((6^3S,4S,Z)-1^1-ethyl-1^2-(2-((S)-1-methoxyethyl)-5-(1-methyl-5-(1-(oxetan-3-yl)piperidin-4-yl)-1H-1,2,4-triazol-3-yl)pyridin-3-yl)-10,10-dimethyl-5,7-dioxo-6^1,6^2,6^3,6^4,6^5,6^6-hexahydro-1^1H-8-oxa-2(4,2)-thiazola-1(5,3)-indola-6(1,3)-pyridazinacycloundecaphane-4-yl)-2,3-dimethylcyclopropane-1-carboxamide], the Kd at cyclophilin A (CypA) came out at 810 pM; in experiment [1], 43000 pM; in experiment [2], 25000 pM; in experiment [3], 27000 pM. Besides, the kon on cyclophilin A (CypA) stood at 150000 M⁻¹ s⁻¹. The koff at cyclophilin A (CypA) worked out at 0.00012 s⁻¹. The IC50 – broadly, the concentration that inhibits the measured activity by half – with H358 is 1 pM; with PSN1, 70 pM; in the experiment with HepG2, 60 pM; in the experiment with SW480, 520 pM; with AsPC-1, 210 pM; in the experiment with HCT116 it was 2800 pM. Further, in the experiment on MV411, the IC50 was found to be 350 pM.
In the case of `CO[C@@H](C)c1ncc(-c2nnc(C3CCN(C4COC4)CC3)o2)cc1-c1c2c3cc(ccc3n1CC(F)(F)F)-c1csc(n1)C[C@H](NC(=O)[C@H]1C[C@@H]1C)C(=O)N1CCC[C@H](N1)C(=O)OCC(C)(C)C2` (atropisomer, axis not shown) [Compound 5, (1S,2S)—N-((6^3S,4S,Z)-1^2-(2-((S)-1-methoxyethyl)-5-(5-(1-(oxetan-3-yl)piperidin-4-yl)-1,3,4-oxadiazol-2-yl)pyridin-3-yl)-10,10-dimethyl-5,7-dioxo-1^1-(2,2,2-trifluoroethyl)-6^1,6^2,6^3,6^4,6^5,6^6-hexahydro-1^1H-8-oxa-2(4,2)-thiazola-1(5,3)-indola-6(1,3)-pyridazinacycloundecaphane-4-yl)-2-methylcyclopropane-1-carboxamide], the Kd on cyclophilin A (CypA) came to 8600 pM; in experiment [1], 27000 pM; in experiment [2] it was 27000 pM; in experiment [3], 17000 pM. The kon on cyclophilin A (CypA) is 200000 M⁻¹ s⁻¹. Further, the koff on cyclophilin A (CypA) turned out to be 0.0017 s⁻¹. For the same molecule, the IC50 came out at 34 pM in the experiment on H358; 30 pM in the experiment on PSN1; 660 pM with HepG2; 110 pM in the experiment with SW480; 80 pM in the experiment with AsPC-1; 20 pM with HCT116. Also, the IC50 in the experiment with MV411 stood at 660 pM.
Take `CCn1c(-c2cc(-c3nnc(C4CCN(C5CN(C(C)C)C5)CC4)o3)cnc2[C@H](C)OC)c2c3cc(ccc31)-c1csc(n1)C[C@H](NC(=O)[C@H]1C[C@@H]1C)C(=O)N1CCC[C@H](N1)C(=O)OCC(C)(C)C2` (atropisomer, axis not shown) [Compound 7, (1S,2S)—N-((6^3S,4S,Z)-1^1-ethyl-1^2-(5-(5-(1-(1-isopropylazetidin-3-yl)piperidin-4-yl)-1,3,4-oxadiazol-2-yl)-2-((S)-1-methoxyethyl)pyridin-3-yl)-10,10-dimethyl-5,7-dioxo-6^1,6^2,6^3,6^4,6^5,6^6-hexahydro-1^1H-8-oxa-2(4,2)-thiazola-1(5,3)-indola-6(1,3)-pyridazinacycloundecaphane-4-yl)-2-methylcyclopropane-1-carboxamide]: the Kd amounted to 16000 pM at cyclophilin A (CypA) and 19000 pM in [1]. Moreover, the kon at cyclophilin A (CypA) turned out to be 230000 M⁻¹ s⁻¹. On cyclophilin A (CypA), the koff is 0.0037 s⁻¹. For the same molecule, the IC50 stood at 4 pM in the experiment on H358; 50 pM in the experiment on PSN1; 50 pM in the experiment on HepG2; 140 pM in the experiment on SW480; 30 pM with AsPC-1; 700 pM in the experiment with HCT116. Besides, in the experiment on MV411, the IC50 turned out to be 490 pM.
As to `CO[C@@H](C)c1ncc(-c2nnc(C3CCN(C4CN(C(C)C)C4)CC3)o2)cc1-c1c2c3cc(ccc3n1CC(F)(F)F)-c1csc(n1)C[C@H](NC(=O)[C@H]1[C@H](C)[C@@H]1C)C(=O)N1CCC[C@H](N1)C(=O)OCC(C)(C)C2` (atropisomer, axis not shown) [Compound 10, (1r,2R,3S)—N-((6^3S,4S,Z)-1^2-(5-(5-(1-(1-isopropylazetidin-3-yl)piperidin-4-yl)-1,3,4-oxadiazol-2-yl)-2-((S)-1-methoxyethyl)pyridin-3-yl)-10,10-dimethyl-5,7-dioxo-1^1-(2,2,2-trifluoroethyl)-6^1,6^2,6^3,6^4,6^5,6^6-hexahydro-1^1H-8-oxa-2(4,2)-thiazola-1(5,3)-indola-6(1,3)-pyridazinacycloundecaphane-4-yl)-2,3-dimethylcyclopropane-1-carboxamide], the “ka (association rate constant)” value on cyclophilin A (CypA) is 2.1E+05 1/[M*s]. Also, the Kd on cyclophilin A (CypA) was determined as 2700 pM; in experiment [1] it was 17000 pM; in experiment [2], 12000 pM; in experiment [3], 9300 pM. Further, the koff at cyclophilin A (CypA) was determined as 0.00057 s⁻¹. Further, the IC50 with H358 amounted to 21 pM; in the experiment on PSN1, 70 pM; with HepG2, 100 pM; in the experiment with SW480, 10 pM; in the experiment with AsPC-1 it was 5 pM; with HCT116, 140 pM. Besides, in the experiment on MV411, the IC50 was 420 pM.
